Assay [1] concerns Staphylococcus aureus 446. Briefly: Standard broth micro-dilution MIC, Staphylococcus aureus 446. In kind it is cell-based. How it is done:
(§1) The minimal inhibitory concentrations (MICs) were determined using a standard broth micro-dilution assay.
(Broth dilution looks for growth in wells or tubes with falling amounts of substance.)

Assay [2] concerns Staphylococcus aureus 489. The experiment in a line: Standard broth micro-dilution MIC, Staphylococcus aureus 489. In kind it is cell-based. How it is done: as §1
Assay [3] has as its system Staphylococcus aureus 447. The experiment in a line: Standard broth micro-dilution MIC, Staphylococcus aureus 447. In kind it is cell-based. The procedure: as §1
Assay [4] has as its system Staphylococcus aureus X400. The experiment in a line: Standard broth micro-dilution MIC, Staphylococcus aureus X400. The assay is classed as cell-based. The procedure:
as §1

The test system of assay [5] is Staphylococcus aureus X778. The experiment in a line: Standard broth micro-dilution MIC, Staphylococcus aureus X778. The assay is classed as cell-based. How it is done:
as §1

Assay [6] deals with Staphylococcus aureus 491. Briefly: Standard broth micro-dilution MIC, Staphylococcus aureus 491. The assay is classed as cell-based. The procedure: as §1
In assay [7] the test system is Staphylococcus aureus S13E. The assay is classed as cell-based. How it is done: as §1
The subject of assay [8] is Staphylococcus aureus SA1199. The experiment in a line: Standard broth micro-dilution MIC, Staphylococcus aureus SA1199. The assay is classed as cell-based. How it is done:
as §1

Assay [9] concerns Staphylococcus aureus SA1199A. The experiment in a line: Standard broth micro-dilution MIC, Staphylococcus aureus SA1199A. The assay is classed as cell-based. How it is done: as §1
For assay [10], the system named is Staphylococcus aureus SA119913. Briefly: Standard broth micro-dilution MIC, Staphylococcus aureus SA119913. In kind it is cell-based. How it is done: as §1
Assay [11] concerns Staphylococcus haemolyticus 105. Briefly: Standard broth micro-dilution MIC, Staphylococcus haemolyticus 105. The assay is classed as cell-based. How it is done: as §1
For assay [12], the system named is Staphylococcus haemolyticus 415. The experiment in a line: Standard broth micro-dilution MIC, Staphylococcus haemolyticus 415. The assay is classed as cell-based. How it is done: as §1
The subject of assay [13] is Staphylococcus epidermidis 270. Briefly: Standard broth micro-dilution MIC, Staphylococcus epidermidis 270. The assay is classed as cell-based. How it is done:
as §1

The subject of assay [14] is Enterococcus faecium 180. Briefly: Standard broth micro-dilution MIC, Enterococcus faecium 180. In kind it is cell-based. The procedure: as §1
The subject of assay [15] is Enterococcus faecalis 2041. Briefly: Standard broth micro-dilution MIC, Enterococcus faecalis 2041. In kind it is cell-based. The procedure:
as §1

Assay [16] relates to Enterococcus faecalis 276. Briefly: Standard broth micro-dilution MIC, Enterococcus faecalis 276. In kind it is cell-based. How it is done:
as §1

In assay [17] the test system is Enterococcus gallinarum 245. The experiment in a line: Standard broth micro-dilution MIC, Enterococcus gallinarum 245. In kind it is cell-based. The procedure: as §1
Assay [18] concerns Streptococcus pyogenes C203. Briefly: Standard broth micro-dilution MIC, Streptococcus pyogenes C203. The assay is classed as cell-based. How it is done: as §1
The subject of assay [19] is Streptococcus pneumoniae P1. The experiment in a line: Standard broth micro-dilution MIC, Streptococcus pneumoniae P1. The assay is classed as cell-based. The procedure:
as §1

The subject of assay [20] is vancomycin-resistant enterococci. Briefly: In Vitro Activity Against Enterococci, vancomycin-resistant strains. The assay is classed as cell-based. Particulars: representative vancomycin-resistant enterococci (Enterococcus faecium and Enterococcus faecalis). The procedure:
as §1

In assay [21] the test system is vancomycin-sensitive enterococci. The experiment in a line: In Vitro Activity Against Enterococci, vancomycin-sensitive strains. The assay is classed as cell-based, Enterococcus faecium and Enterococcus faecalis. The settings on record: for mean geometric MIC, Vancomycin Sensitive Strains: representative vancomycin-sensitive enterococci (Enterococcus faecium and Enterococcus faecalis). The procedure:
as §1

Assay [22] concerns Enterococcus faecium 180-1. Briefly: Standard broth micro-dilution MIC, Enterococcus faecium 180-1. In kind it is cell-based. How it is done:
as §1

Assay [23] has as its system Escherichia coli EC14. The experiment in a line: Standard broth micro-dilution MIC, Escherichia coli EC14. The assay is classed as cell-based. How it is done: as §1

Converted amounts (≈) assume the structure as drawn.

As a reminder, the MIC is the smallest concentration in the dilution series that meets the test's criterion for growth inhibition.

For “1,3-phenylene-bis-[(oxy-1,3-n-propyleneoxy-4,1-phenylene)]-methylene]-bis-[vancomycin] [Compound 12]”, the minimal inhibitory concentration (MIC) in [1] worked out at 8 mg/L; in [2], 2 mg/L; in [3], 8 mg/L; in [4] it was 2 mg/L; in assay [5], 2 mg/L; in assay [6], 2 mg/L. For the same molecule, the MIC in assay [7] was determined as 4 mg/L; in assay [8], 4 mg/L; in [9], 1 mg/L; in assay [10], 4 mg/L; in assay [11], 4 mg/L; in assay [12], 4 mg/L. In addition, the MIC is 4 mg/L in assay [13]; no more than 0.06 mg/L in [14]; 0.25 mg/L in assay [15]; 1 mg/L in assay [16]; 0.06 mg/L in assay [17]; 0.06 mg/L in assay [18]. In addition, in [19], the MIC is 0.06 mg/L. Also, in assay [20], the “mean geometric MIC, Vancomycin Resistant Strains” value was determined as 4.0 mg/L. The “mean geometric MIC, Vancomycin Sensitive Strains” value in [21] is 0.66 mg/L.

Consider “1,3-phenylenebis[oxy-1,3-n-propylene-oxy-4,1-phenylene)methylene]bis-[A82846B,(3-dimethylaminopropyl)-amide] [Compound 71]”, for which the MIC in assay [1] worked out at 4 mg/L; in [2], 2 mg/L; in assay [3] it was 4 mg/L; in assay [4], 4 mg/L; in [5], 2 mg/L; in [6], 2 mg/L. For the same molecule, the MIC in assay [7] came out at 2 mg/L; in assay [8], 4 mg/L; in assay [9], 2 mg/L; in assay [10], 2 mg/L; in assay [11] it was 2 mg/L; in assay [12] it was 2 mg/L. For the same molecule, the minimal inhibitory concentration (MIC) was determined as 1 mg/L in [13]; 2 mg/L in assay [14]; 0.5 mg/L in assay [22]; 0.5 mg/L in [15]; 1 mg/L in assay [16]; 0.5 mg/L in assay [17]. Also, the minimum inhibitory concentration (MIC) in assay [18] and in assay [19] was 0.5 mg/L each time. In assay [20], the “mean geometric MIC, Vancomycin Resistant Strains” value worked out at 2.4 mg/L. Further, the “mean geometric MIC, Vancomycin Sensitive Strains” value in assay [21] worked out at 0.38 mg/L.

Regarding “5-n-pentyl-1,3-phenylene-bis[(oxy-1,3-n-propyleneoxy-4,1-phenylene)methylene]-bis-[vancomycin] [Compound 61]”, the minimum inhibitory concentration (MIC) in [1] came to 8 mg/L; in assay [2] it was 4 mg/L; in assay [3] it was 16 mg/L; in assay [4], 8 mg/L; in [5], 4 mg/L; in [6], 2 mg/L. For the same molecule, the minimum inhibitory concentration (MIC) in [7] was found to be 16 mg/L; in assay [8], 8 mg/L; in assay [9], 1 mg/L; in assay [10] it was 16 mg/L; in assay [11] it was 1 mg/L; in assay [12] it was 8 mg/L. For the same molecule, the minimal inhibitory concentration (MIC) in assay [13] is 4 mg/L; in assay [14], 1 mg/L; in assay [22], 0.5 mg/L; in assay [15], 2 mg/L; in assay [16] it was 2 mg/L; in assay [17], 1 mg/L. Further, the MIC is 1 mg/L in assay [18] and 2 mg/L in assay [19]. In addition, in assay [20], the “mean geometric MIC, Vancomycin Resistant Strains” value was found to be 2 mg/L. The “mean geometric MIC, Vancomycin Sensitive Strains” value in assay [21] is 1.2 mg/L.

Take `CN[C@H](CC(C)C)C(=O)N[C@H]1C(=O)N[C@@H](CC(N)=O)C(=O)N[C@H]2C(=O)N[C@H]3C(=O)N[C@H](C(=O)N[C@H](C(=O)O)c4cc(O)cc(O)c4-c4cc3ccc4O)[C@H](O[C@H]3C[C@](C)(N)[C@@H](O)[C@H](C)O3)c3ccc(c(Cl)c3)Oc3cc2cc(c3O[C@@H]2O[C@H](CO)[C@@H](O)[C@H](O)[C@H]2O[C@H]2C[C@](C)(N)[C@@H](O)[C@H](C)O2)Oc2ccc(cc2Cl)[C@H]1O` [Compound A82846B, A82846B, reference compound]: the minimum inhibitory concentration (MIC) is no more than 0.06 mg/L in assay [2], no more than 0.06 mg/L in assay [9] and 8 mg/L (≈ 5.02 µM) in assay [14]. Further, the “mean geometric MIC, Vancomycin Resistant Strains” value in assay [20] amounted to 29 mg/L. The “mean geometric MIC, Vancomycin Sensitive Strains” value in [21] was determined as 0.22 mg/L.

For the molecule `CN[C@H](CC(C)C)C(=O)N[C@H]1C(=O)N[C@@H](CC(N)=O)C(=O)N[C@H]2C(=O)N[C@H]3C(=O)N[C@H](C(=O)N[C@H](C(=O)O)c4cc(O)cc(O)c4-c4cc3ccc4O)[C@H](O)c3ccc(c(Cl)c3)Oc3cc2cc(c3O[C@@H]2O[C@H](CO)[C@@H](O)[C@H](O)[C@H]2O[C@H]2C[C@](C)(N)[C@H](O)[C@H](C)O2)Oc2ccc(cc2Cl)[C@H]1O` [Vancomycin, reference compound], the minimal inhibitory concentration (MIC) in assay [14] was greater than 64 mg/L; in [15] it was 2 mg/L (≈ 1.38 µM); in assay [16] it was 1 mg/L (≈ 0.69 µM); in assay [21] (read-out: mean geometric MIC, Vancomycin Sensitive Strains) it was 3.9 mg/L (≈ 2.69 µM).

As to “N^4 -(4(3-(3-(3-(p-formylphenoxy)-n-propyloxy)phenoxy)-n-propyloxy)-benzyl)vancomycin [Compound 52]”, in assay [20], the “mean geometric MIC, Vancomycin Resistant Strains” value was 4.8 mg/L. For the same molecule, the “mean geometric MIC, Vancomycin Sensitive Strains” value in assay [21] was determined as 0.093 mg/L.

On to “N^4 -(4-(3-(3-(3-(p-formylphenoxy)-n-propoxy)-5-phenylphenoxy)-n-propoxy)benzyl)vancomycin [Compound 45]”, for which the MIC was 1 mg/L in [1]; 2 mg/L in [2]; 1 mg/L in [3]; 0.5 mg/L in assay [4]; 0.5 mg/L in assay [5]; 0.5 mg/L in assay [6]. In addition, the MIC in assay [7] is 0.5 mg/L; in [8] it was 0.5 mg/L; in assay [9] it was no more than 0.06 mg/L; in assay [10], 0.5 mg/L; in assay [11] it was 0.5 mg/L; in assay [12], 2 mg/L. Besides, the minimum inhibitory concentration (MIC) in assay [13] was 1 mg/L; in [14], 0.5 mg/L; in assay [15] it was 0.125 mg/L; in [16], 0.25 mg/L; in [17] it was 0.5 mg/L; in assay [23], greater than 64 mg/L. The minimal inhibitory concentration (MIC) in assay [18] and in [19] was 0.06 mg/L each time. Further, the “mean geometric MIC, Vancomycin Resistant Strains” value in [20] came to 2.8 mg/L. Besides, in assay [21], the “mean geometric MIC, Vancomycin Sensitive Strains” value was 0.33 mg/L.

“N^4 -(4-(3-(p-formylphenoxy)-n-propyloxy)benzyl)vancomycin [Compound 34]”: the MIC in assay [1], in assay [2], in [3], in assay [4], in assay [5] and in assay [6] was no more than 0.06 mg/L each time. Besides, the MIC in assay [7] was no more than 0.06 mg/L; in [8], no more than 0.06 mg/L; in assay [9], no more than 0.06 mg/L; in assay [10], no more than 0.06 mg/L; in assay [11], 0.5 mg/L; in assay [12] it was 2 mg/L. The MIC was 0.25 mg/L in assay [13]; 0.5 mg/L in assay [14]; no more than 0.06 mg/L in assay [22]; no more than 0.06 mg/L in assay [15]; no more than 0.06 mg/L in assay [16]; 1 mg/L in assay [17]. The minimal inhibitory concentration (MIC) in assay [18] and in [19] was 0.06 mg/L throughout. Besides, the “mean geometric MIC, Vancomycin Resistant Strains” value in [20] came out at 53 mg/L. In assay [21], the “mean geometric MIC, Vancomycin Sensitive Strains” value stood at 0.87 mg/L.

“N^4 -(4-(8-(p-formylphenoxy)-n-octyloxy)benzyl)vancomycin [Compound 40]”: the MIC was 0.5 mg/L in [1]; 0.25 mg/L in [3]; no more than 0.06 mg/L in assay [5]; no more than 0.06 mg/L in assay [6]; 0.25 mg/L in assay [7]; 0.25 mg/L in [8]. Moreover, the MIC in assay [9] was no more than 0.06 mg/L; in assay [10], 1 mg/L; in assay [11], 1 mg/L; in assay [12] it was 4 mg/L; in assay [13], 0.25 mg/L; in [14], 1 mg/L. Further, the minimal inhibitory concentration (MIC) in [22] is no more than 0.06 mg/L; in assay [15], 0.125 mg/L; in assay [16] it was 0.25 mg/L; in assay [17] it was 1 mg/L; in assay [23] it was greater than 64 mg/L; in assay [18], 0.06 mg/L. The minimal inhibitory concentration (MIC) in assay [19] amounted to 0.06 mg/L. Besides, the “mean geometric MIC, Vancomycin Resistant Strains” value in [20] worked out at 11.3 mg/L. For the same molecule, in assay [21], the “mean geometric MIC, Vancomycin Sensitive Strains” value came out at 0.19 mg/L.

For the origin of these results see patent US6037447A, “Glycopeptide compounds” (priority 1998, dated 2000).
